# US6376511B2, “8-aminoquinolines” (The University of Mississippi, priority 1999, dated 2002)
# Read-outs that look alike come from different tables or passages of the source.
# How the values were obtained:
# [1] = test system: L. donovani Chagasi PP75; experiment: In vitro anti-Leishmania activity, Giemsa counts; format: cell-based; details: control 6.35
# [2] = test system: Leishmania; experiment: In vitro activity against a variety of strains of Leishmania; format: cell-based
# [3] = test system: P. berghei; details: single dose 72 h after infection, cited from earlier work
# [4] = test system: Plasmodium berghei KBG-173; experiment: Prophylactic test, Plasmodium berghei infection in mice, oral; format: in vivo; details: for Mice surviving day 60/Mice infected and treated: single dose of 2 mg/kg
# Excerpt: CD-I male or female mice, 5 weeks of age, were infected with 5×10^4 parasitized erythrocytes ot Plasmodium berghei KBG-173 mm strain. Blood films were taken on day +6 and weekly thereafter until day+30. […]
# [5] = test system: trypanosome isolate KETRI 269; experiment: Antitrypanosomal activity, trypanosome isolates grown as blood forms in HMI-18; format: cell-based, Trypanosoma; details: Trypanosoma, 48 h
# Protocol: (§1) Compounds were tested vs. trypanosome isolates grown as blood forms in HMI-18 (Hirumi H., Hirumi, K. 1989. Continuous Cuitivation of Trypanosoma brucei bloodstream forms in a medium containing a low concentration of serum portein without feeder cell layers. J. Parasitol. 75:985-989) containing 20% horse serum.
# [6] = test system: trypanosome isolate KETRI 243; experiment: as above; format: cell-based, Trypanosoma; details: Trypanosoma, 48 h
# Protocol: as §1
# [7] = test system: trypanosome isolate KETRI 243As103; experiment: as above; format: cell-based, Trypanosoma; details: Trypanosoma, 48 h
# Protocol: as §1
# [8] = test system: trypanosome isolate EATRO Lab 110; experiment: as above; format: cell-based, Trypanosoma; details: Trypanosoma, 48 h
# Protocol: as §1
# [9] = test system: Plasmodium berghei KBG-173; format: in vivo; details: for Parasitemia Day 6: percentage of red blood cells with parasites, control 31.8
# Protocol: Blood Schizontocidal Test (Trophozoite-Induced Plasmodium berghei Infection in mice University of Miami, Test System: Thompson Test
# Drugs were mixed in 0.5% hydroxycellulose 0.1% Tween 80 and administered orally b.i.d. on days 3, 4 and 5 postinfection. CD-1 male or female mice, 5 weeks of age, were infected with 5×10^4 parasitized erythrocytes of Plasmodium berghei KBG-173 mm strain. Blood films were taken on day +6 and weekly thereafter until day +60. Parasitemias were calculated and SD90 value (dose suppressing 90% of the parasites in treated groups compared with the infected non-treated controls) on day +6 postinfection. Mortality data was tabulated for 60 days at which time all mice surviving that were blood film negative were considered cured.
# […] The activity of these compounds were compared with the untreated control and “racemate” which is a mixture of equal amount of each enantiomer X and Y. In untreated controls, death occurs within 8-9 days. Compounds which are effective against Plasmodium berghei infection increase the mean survival time of the infected animals when compared with the untreated controls. Mice that survive after thirty days and are free of parasites in blood are considered cured.
# Efficacy of the drug is determined by the number of cures at the end of a 30 day period and the increase in mean survival time over the control (ΔMST). The effect of the test drugs also could be determined by the reduction of the parasitemia (percentage of the red blood cells detected with the parasites) over the untreated control on day 6, one day after the treatment is completed. Both these methods yield virtually identical results. If the dose of test compounds are inadequate, after initial clearance, residual parasites will multiply and relapses will occur within thirty days. The blood schizontocidal activities (suppressive antimalarial) of X, Y, and racemate against P. berghei in mice are shown in Table 11.
# [10] = test system: L. mexicana amazonensis; experiment: In vitro anti-Leishmania activity, Giemsa counts; format: cell-based; details: 10 μg/mL; control 15.10 ± 2.18
# [11] = test system: P. carinii; experiment: In vitro antipneumocystis activity; format: cell-based; details: Pneumocystis carinii, 168 h, read-out: % of control on day 7
# [12] = test system: Toxoplasma gondii; experiment: In vitro evaluation against Toxoplasma gondii; format: cell-based; details: preliminary evaluation
# [13] = test system: P. cynomolgi; details: rhesus monkey, cited from earlier work
# [14] = test system: Pneumocystis carinii; experiment: Anti-Pneumocystis carinii test (induced Pneumocystis carinii infection in immunosuppressed mice), oral; format: in vivo; details: mice
# [15] = 0.25 mg/kg/day, 0.75 mg/kg total
# [16] = oral 1.3 mg/kg/day (x21), mean score on 0 to 5+ scale
structure (smiles),measurement,setting,value
"COc1cc(NC(C)CCCN)c2nccc(C)c2c1Oc1ccc(Cl)c(Cl)c1 (racemic) [DN3-27-1, 8-[(4-amino-1-methylbutyl)amino]-5-(3,4-dichlorophenoxy)-6-methoxy-4-methylquinoline]",Giemsa Counts,[1]; 50 ng/mL,0.95 ± 0.27
same,Giemsa Counts,[1]; 150 ng/mL,0.10 ± 0.03
same,Giemsa Counts,[1]; 450 ng/mL,0.00 ± 0.00
same,in vitro activity against a variety of strains of Leishmania,[2],in vitro activity at very low concentrations
same,Mice infected and treated/Mice surviving 60 days,[3]; 5 mg/kg subcutaneously,5/4
same,Mice infected and treated/Mice surviving 60 days,[3]; 10 mg/kg subcutaneously,5/5
same,Mice infected and treated/Mice surviving 60 days,[3]; 20 mg/kg subcutaneously,5/5
same,Mice infected and treated/Mice surviving 60 days,[3]; 40 mg/kg subcutaneously,5/5
same,Mice infected and treated/Mice surviving 60 days,[3]; 80 mg/kg subcutaneously,5/5
same,Mice infected and treated/Mice surviving 60 days,[3]; 160 mg/kg subcutaneously,5/5
same,Mice infected and treated/Mice surviving 60 days,[3]; 320 mg/kg subcutaneously,5/5
same,Mice infected and treated/Mice surviving 60 days,[3]; 640 mg/kg subcutaneously,5/5
same,Mice infected and Mice/treated surviving day 60,"[4]; day of treatment 1, dose 2 mg/kg",5/5
same,Mice infected and Mice/treated surviving day 60,"[4]; day of treatment 1, dose 8 mg/kg",5/5
same,Mice infected and Mice/treated surviving day 60,"[4]; day of treatment 1, dose 32 mg/kg",5/5
same,Mice infected and Mice/treated surviving day 60,"[4]; day of treatment 1, dose 128 mg/kg",5/5
same,Mice infected and Mice/treated surviving day 60,"[4]; day of treatment 2, dose 2 mg/kg",5/5
same,Mice infected and Mice/treated surviving day 60,"[4]; day of treatment 2, dose 8 mg/kg",5/5
same,Mice infected and Mice/treated surviving day 60,"[4]; day of treatment 2, dose 32 mg/kg",5/5
same,Mice infected and Mice/treated surviving day 60,"[4]; day of treatment 2, dose 128 mg/kg",5/5
same,Mice infected and Mice/treated surviving day 60,"[4]; day of treatment -1, dose 2 mg/kg",5/5
same,Mice infected and Mice/treated surviving day 60,"[4]; day of treatment -1, dose 8 mg/kg",5/5
same,Mice infected and Mice/treated surviving day 60,"[4]; day of treatment -1, dose 32 mg/kg",5/5
same,Mice infected and Mice/treated surviving day 60,"[4]; day of treatment -1, dose 128 mg/kg",5/5
same,Mice infected and Mice/treated surviving day 60,"[4]; day of treatment -2, dose 2 mg/kg",5/5
same,Mice infected and Mice/treated surviving day 60,"[4]; day of treatment -2, dose 8 mg/kg",5/5
same,Mice infected and Mice/treated surviving day 60,"[4]; day of treatment -2, dose 32 mg/kg",5/5
same,Mice infected and Mice/treated surviving day 60,"[4]; day of treatment -2, dose 128 mg/kg",5/5
same,Mice infected and Mice/treated surviving day 60,"[4]; day of treatment -3, dose 2 mg/kg",0/5
same,Mice infected and Mice/treated surviving day 60,"[4]; day of treatment -3, dose 8 mg/kg",5/5
same,Mice infected and Mice/treated surviving day 60,"[4]; day of treatment -3, dose 32 mg/kg",5/5
same,Mice infected and Mice/treated surviving day 60,"[4]; day of treatment -3, dose 128 mg/kg",5/5
same,protection from malaria,"[4]; single dose of 2 mg/kg within 2 days preinfection through 2 days post infection, mice",completely protected from malaria
same,Mice surviving day 60/Mice infected and treated,[4]; day of treatment 2 (Table 5),2/5
same,Mice surviving day 60/Mice infected and treated,[4]; day of treatment -2 (Table 5),0/5
same,Mice surviving day 60/Mice infected and treated,[4]; day of treatment -3 (Table 5),0/5
same,Mice surviving day 60/Mice infected and treated,[4]; day of treatment -4 (Table 5),0/5
same,Mice surviving day 60/Mice infected and treated,[4]; day of treatment -5 (Table 5),0/5
same,IC50,[5],5 µM
same,IC50,[6],29 µM
same,IC50,[7],10.9 µM
same,IC50,[8],9.4 µM
same,Mice Alive Day 26,[9]; [15],0/5
same,ΔMST (increase in mean survival time over the control),[9]; [15],11.6 days
same,Parasitemia Day 6,[9]; [15],4.8
same,Mice Alive Day 26,"[9]; 1 mg/kg/day, 3 mg/kg total",0/5
same,ΔMST (increase in mean survival time over the control),"[9]; 1 mg/kg/day, 3 mg/kg total",10.2 days
same,Parasitemia Day 6,"[9]; 1 mg/kg/day, 3 mg/kg total",0.1
same,toxicity in mice,[9]; highest dose tested (Table I),no mice showed toxicity at the highest dose tested
same,Mice surviving 60 days/Mice infected and treated,"[9]; oral dose 1 mg/kg/day (total dose 3 mg/kg), P. berghei in mice",7/7
same,Mice surviving 60 days/Mice infected and treated,"[9]; oral dose 4 mg/kg/day (total dose 12 mg/kg), P. berghei in mice",7/7
same,Mice surviving 60 days/Mice infected and treated,"[9]; oral dose 16 mg/kg/day (total dose 48 mg/kg), P. berghei in mice",7/7
same,Mice surviving 60 days/Mice infected and treated,"[9]; oral dose 64 mg/kg/day (total dose 192 mg/kg), P. berghei in mice",7/7
same,"blood schizonticidal activity, comparison among compounds of Table I","[9]; oral, P. berghei in mice",the most active
same,Giemsa Counts,[10],1.30 ± 0.38
same,activity at 0.1 µg/mL,[11]; concentration 0.1 μg/ml,76.7%
same,activity at 1 µg/mL,[11]; concentration 1.0 μg/ml,40.5%
same,activity at 10 µg/mL,[11]; concentration 10 μg/ml,3.2%
same,activity in vitro against Toxoplasma gondii (concentration),[12],around 50 μM
same,Monkeys infected and treated/cured,"[13]; 0.1 mg/kg/day x7, orally",0/3
same,Monkeys infected and treated/cured,"[13]; 0.316 mg/kg/day x7, orally",1/2
same,Monkeys infected and treated/cured,"[13]; 1.0 mg/kg/day x7, orally",3/3
same,Giemsa Stain I/T (animals with organism after treatment/animals treated),[14]; oral 0.25 mg/kg/day (x21),2/10
same,Giemsa Stain I/T (animals with organism after treatment/animals treated),[14]; oral 1.3 mg/kg/day (x21),0/10
same,Silver stain I/T (animals with organism after treatment/animals treated),[14]; oral 1.3 mg/kg/day (x21),0/10
same,Giemsa Stain Score,[14]; [16],0.0
same,Silver stain Score,[14]; [16],0.0
